Active and inactive are the calls of the source. No rule for the calls is given here.

This passage reports inhibition and haemolysis results from PubChem BioAssay AID2061108 (Research group of Professor Matthew Todd, School of …, 2025).

Common to all, as to assay: antibacterial and antifungal growth inhibition panel, profiling panel, Idler compounds, first plate, PMBN-permeabilized strains (AID 2061108)
Holding throughout (design): haemolysis: dose or concentration left out as unconfirmed

Assay [1] relates to E. coli NCTC 12923 + PMBN growth inhibition, 100 uM. Particulars: S. aureus ATCC 9144 growth inhibition; measured here: E. coli plus PMBN; at 100 µM; stronger effect = higher value.
Assay [2] relates to A. baumannii ATCC 17978 growth inhibition, 100 uM. Particulars: S. aureus ATCC 9144 growth inhibition; measured here: A. baumannii ATCC 17978; at 100 µM; stronger effect = higher value.
Assay [3] relates to E. coli NCTC 12923 growth inhibition, 100 uM. Particulars: E. coli NCTC 12923 growth inhibition, 100 µM; stronger effect = higher value.
The subject of assay [4] is M. avium growth inhibition, 10 uM. Particulars: M. avium growth inhibition, 10 µM.
In assay [5] the test system is C. albicans NCPF 3281 growth inhibition, 100 uM. Particulars: S. aureus ATCC 9144 growth inhibition; measured here: C. albicans NCPF 3281; at 100 µM; stronger effect = higher value.
Assay [6] concerns red blood cell haemolysis. Particulars: stronger effect = higher value; dose or concentration not given here.
Assay [7] relates to A. baumannii ATCC 17978 + PMBN growth inhibition, 100 uM. Particulars: A. baumannii plus PMBN growth inhibition, 100 µM; stronger effect = higher value.
Assay [8] has as its system M. abscessus growth inhibition, 10 uM. Particulars: S. aureus ATCC 9144 growth inhibition; measured here: M. abscessus; at 10 µM.
Assay [9] has as its system S. aureus ATCC 9144 growth inhibition, 100 uM. Particulars: S. aureus ATCC 9144 growth inhibition; at 100 µM; stronger effect = higher value.

Broadly, the inhibition is the relative decrease from the control value, in per cent. `NC(=O)C1CCN(c2nc(OCc3ccc(F)nc3)nc(N3CCCOCC3)n2)CC1`: the inhibition in [1] is -2.07%; in [2] it was -0.843%; in [3], -2.97%; in [4], 0.922%; in assay [5], -78.3%; in [7], 9.86%. Moreover, the inhibition in [8] was -0.107%; in assay [9] it was 18.4% (inactive). In addition, the haemolysis in assay [6] amounted to 1.34%.
Consider `Cn1nc(C(C)(C)C)cc1NC(=O)Nc1ccc(Cl)cc1`, for which the inhibition in assay [1] was 99.4%; in [2], -12%; in [3], 12.6%; in assay [4], 0.442%; in assay [5] it was -75.2%; in assay [7] it was 83%. The inhibition is -0.347% in assay [8] and -18.4% in assay [9]. In assay [6], the haemolysis stood at 0.904%.
Consider `FC(F)Oc1ccc(-c2nnc3cncc(OCCCC(F)(F)F)n23)cc1`, for which the inhibition in assay [1] is -9.02%; in assay [2] it was -14.8%; in [3], -7.16%; in [4], -0.289%; in assay [5], -49.2%; in assay [7], 4.86%. The results for the inhibition in [8] and in [9] were -0.237% and -9.47% (inactive), respectively. In [6], the haemolysis was 0.0506%.
As for `Cn1nc(NC(=O)Nc2ccc(Cl)cc2)cc1C(C)(C)C`, the inhibition in assay [1] is -30.4%; in assay [2] it was -22%; in [3] it was -25%; in assay [4] it was 0.567%; in assay [5] it was -94%; in [7], -3%. Further, the inhibition in assay [8] is -0.422%; in assay [9] it was -14.7% (inactive). Further, the haemolysis in [6] was 0.275%.
Consider `N#Cc1cc(-c2cccc(Cl)c2)no1`, for which the inhibition in assay [1] was 1.71%; in assay [2], -0.723%; in assay [3], -0.811%; in assay [4], 0.349%; in [5], -135%; in [7], 26.6%. Also, the values for the inhibition in [8] and in assay [9] were 0.0599% and 15.6% (inactive), respectively. The haemolysis in assay [6] turned out to be 6.05%.
`O=C(N1CCCCC1)N1CCCCC1Cc1ccccc1` (stereo not given): the inhibition in assay [1] is 18.1%; in [2], -2.26%; in assay [3] it was -3.65%; in assay [4], 0.89%; in [5], -79.6%; in assay [7], 16.8%. The inhibition in assay [8] is -0.54%; in [9], 7% (inactive). In addition, the haemolysis in [6] was -0.191%.
Regarding `Nc1ncnc2cc(-c3cccc(S(=O)(=O)NC(=O)C(N)Cc4ccccc4)c3)sc12` (stereo not given), the inhibition is -18.8% in assay [1]; 1.55% in [2]; -49.3% in assay [3]; 11.7% in assay [4]; -49.9% in [5]; 3.19% in assay [7]. Further, the figures for the inhibition in assay [8] and in assay [9] were -0.63% and -16.5% (inactive), respectively. Besides, in assay [6], the haemolysis came to 0.0594%.
For the compound `O=C(N/N=C/c1ccc2cccc(O)c2n1)c1ccncc1`, the inhibition in [1] is -1.73%; in assay [2], 13.7%; in assay [3] it was 8.65%; in [4] it was -0.55%; in [5] it was -33.7%; in assay [7], 37.1%. Also, the inhibition was -0.775% in [8] and 23.3% (inactive) in assay [9]. For the same compound, the haemolysis in assay [6] came out at 0.565%.
`Cc1cccc(C)c1OCC(O)CSc1ccccn1` (stereo not given): the inhibition in assay [1] was 59.6%; in [2], 11.9%; in [3], -44.2%; in [4], -0.789%; in assay [5], -34.4%; in assay [7], 51.9%. Further, the inhibition is -0.104% in [8] and -7.89% (inactive) in assay [9]. Further, the haemolysis in [6] was found to be 0.214%.
Turning to `O=C(N/N=C/c1ccncc1O)c1ccncc1`, the inhibition was 1.36% in assay [1]; 12.6% in assay [2]; 18.6% in [3]; -1.89% in assay [4]; 79.2% in assay [5]; 22.8% in assay [7]. Besides, the inhibition in assay [8] was -0.377%; in [9], 22% (inactive). In addition, in [6], the haemolysis was -0.102%.
Consider `COc1cc2nc(N3CCC(N(C)C)C3)nc(N3CCN(C(=O)OC(C)(C)C)CC3)c2cc1OC` (stereo not given), for which the inhibition is 10.1% in [1]; -7.35% in assay [2]; 2.57% in assay [3]; 3.78% in [4]; -73.8% in assay [5]; 29.6% in [7]. The inhibition is -0.0588% in assay [8] and 7.89% (inactive) in assay [9]. Further, the haemolysis in assay [6] was found to be 0.172%.
`COc1ccc(Nc2nc(-c3ccoc3)cs2)c(C)c1`: the inhibition is -20.1% in [1]; -13.9% in assay [2]; -15% in [3]; 0.988% in assay [4]; -127% in [5]; 16.4% in assay [7]. Moreover, the figures for the inhibition in [8] and in assay [9] were -1.05% and -12.5% (inactive), respectively. For the same compound, the haemolysis in assay [6] turned out to be 0.164%.
Regarding `NC(=O)C1CCN(c2nc(OCc3ccc(F)nc3)nc(N3CCn4c(nnc4C(F)(F)F)C3)n2)CC1`, the inhibition in assay [1] was -3.54%; in assay [2], -4.58%; in assay [3], -2.57%; in assay [4], 1.56%; in assay [5] it was -84%; in [7], 11.7%. For the same compound, the inhibition in assay [8] is 0.0526%; in assay [9] it was 16.7% (inactive). Also, the haemolysis in assay [6] amounted to 0.123%.
For the compound `N#Cc1c(Cl)nc2ccccc2c1C(F)(F)F`, the inhibition in assay [1] was -1.22%; in [2], 3.86%; in assay [3], -10%; in [4], 0.667%; in assay [5], -47.1%; in assay [7], 31.1%. For the same compound, the inhibition was 0.0452% in assay [8] and 10% (inactive) in assay [9]. For the same compound, the haemolysis in [6] is 0.129%.
Consider `O=C(Nc1ccc(-c2nn[nH]n2)cc1)c1ccc(Oc2ccccc2)cc1`, for which the inhibition in assay [1] was 17.2%; in assay [2], -0.833%; in assay [3], 0.27%; in assay [4] it was -1.24%; in assay [5] it was -19.7%; in assay [7], 16.4%. Also, the inhibition in [8] is -0.941%; in [9], 16.2% (inactive). For the same compound, in assay [6], the haemolysis was -0.191%.
On to `O=C(Nc1ccc(OC2CCCCC2)cc1)c1ccc(-c2nn[nH]n2)cc1`, for which the inhibition in [1] is 6.17%; in [2], -15.8%; in [3] it was 1.08%; in [4], -0.389%; in [5], 6.07%; in assay [7] it was 17.1%. In addition, the inhibition in [8] was -1.07%; in assay [9], 7.17% (inactive). Further, the haemolysis in assay [6] was 0.0779%.
Turning to `COC(COc1cncc2nnc(-c3ccc(OC(F)F)cc3)n12)c1ccccc1` (stereo not given), the inhibition in assay [1] was -28.1%; in [2], -16.4%; in assay [3], -38.8%; in assay [4], -0.713%; in assay [5], -17.3%; in assay [7], -15.5%. Further, the inhibition in [8] is -0.536%; in assay [9] it was -22.8% (inactive). Besides, in assay [6], the haemolysis was -0.0885%.
As to `COc1cccc(C(=O)NCCOCc2cccc(N)c2)c1`, the inhibition is 4.39% in [1]; -1.45% in assay [2]; -10.5% in [3]; 2.24% in assay [4]; -63.9% in assay [5]; 23.9% in assay [7]. The inhibition in assay [8] is -0.253%; in assay [9] it was 13.7% (inactive). Moreover, the haemolysis in assay [6] turned out to be 0.269%.
Regarding `N#Cc1ccc(NC2Cc3cccc(O)c3C2)cc1C(F)(F)F` (stereo not given), the inhibition in assay [1] was 100%; in assay [2] it was 68.5%; in assay [3], 22.3%; in assay [4] it was -0.176%; in assay [5] it was 100%; in assay [7], 100%. In addition, the inhibition in assay [8] was -0.648%; in [9], 99.7%. In addition, the haemolysis in assay [6] was determined as 2.84%.
In the case of `C=CCSc1nc2c(c(=O)[nH]1)C(c1ccc(N(C)C)cc1)C1=C(CCCC1=O)N2` (stereo not given), the inhibition in [1] was -12.3%; in assay [2] it was 1.79%; in assay [3], -40%; in assay [4] it was 0.543%; in [5], 15.9%; in [7] it was 1.16%. In addition, the values for the inhibition in assay [8] and in assay [9] were -0.888% and -16.3% (inactive), respectively. The haemolysis in assay [6] is -0.046%.
